Source: ChEMBL document CHEMBL1909046, “DrugMatrix in vitro pharmacology data”

Legend:
[1] = target: Epidermal growth factor receptor (Homo sapiens, UniProt P00533); test: DRUGMATRIX: Protein Tyrosine Kinase, EGF Receptor enzyme inhibition (substrate: Poly(Glu:Tyr)); format: cell-based, Insect cells; settings: insect cells; Not Active = under 50% inhibition at 10 µM
[2] = target: T1, Alpha-1D adrenergic receptor (Homo sapiens, UniProt P25100); format: cell membranes, HEK293, Membrane; also: in other assays of this panel Not Active means under 50% inhibition at 10 µM
T1 sequence (P25100 whole entry): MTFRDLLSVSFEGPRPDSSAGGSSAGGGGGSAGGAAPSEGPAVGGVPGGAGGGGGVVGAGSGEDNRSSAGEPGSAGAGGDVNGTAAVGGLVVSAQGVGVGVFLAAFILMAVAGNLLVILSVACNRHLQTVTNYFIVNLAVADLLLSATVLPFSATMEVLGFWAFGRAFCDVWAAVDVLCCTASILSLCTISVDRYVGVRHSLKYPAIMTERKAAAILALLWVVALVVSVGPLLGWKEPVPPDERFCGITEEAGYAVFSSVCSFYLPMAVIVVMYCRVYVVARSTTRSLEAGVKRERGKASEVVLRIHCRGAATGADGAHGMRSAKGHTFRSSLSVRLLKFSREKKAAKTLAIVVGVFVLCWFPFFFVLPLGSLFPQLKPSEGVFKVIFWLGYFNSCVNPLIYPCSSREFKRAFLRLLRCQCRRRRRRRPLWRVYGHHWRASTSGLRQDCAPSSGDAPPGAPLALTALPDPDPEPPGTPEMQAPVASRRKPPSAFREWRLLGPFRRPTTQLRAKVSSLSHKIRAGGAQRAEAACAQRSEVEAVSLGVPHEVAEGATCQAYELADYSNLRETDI

[3] = target: Melanocortin receptor 3 (Homo sapiens, UniProt P41968); format: cell membranes, HEK293, Membrane; settings: hek293; also: in other assays of this panel Not Active means under 50% inhibition at 10 µM
[4] = target: T2, Nitric oxide synthase, inducible (Mus musculus, UniProt P29477); parameters: species or system Escherichia coli;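 also: inhibition of iNOS enzyme activity measured with L-arginine as substrate; in other assays of this panel Not Active means under 50% inhibition at 10 µM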
T2 sequence (P29477 whole entry): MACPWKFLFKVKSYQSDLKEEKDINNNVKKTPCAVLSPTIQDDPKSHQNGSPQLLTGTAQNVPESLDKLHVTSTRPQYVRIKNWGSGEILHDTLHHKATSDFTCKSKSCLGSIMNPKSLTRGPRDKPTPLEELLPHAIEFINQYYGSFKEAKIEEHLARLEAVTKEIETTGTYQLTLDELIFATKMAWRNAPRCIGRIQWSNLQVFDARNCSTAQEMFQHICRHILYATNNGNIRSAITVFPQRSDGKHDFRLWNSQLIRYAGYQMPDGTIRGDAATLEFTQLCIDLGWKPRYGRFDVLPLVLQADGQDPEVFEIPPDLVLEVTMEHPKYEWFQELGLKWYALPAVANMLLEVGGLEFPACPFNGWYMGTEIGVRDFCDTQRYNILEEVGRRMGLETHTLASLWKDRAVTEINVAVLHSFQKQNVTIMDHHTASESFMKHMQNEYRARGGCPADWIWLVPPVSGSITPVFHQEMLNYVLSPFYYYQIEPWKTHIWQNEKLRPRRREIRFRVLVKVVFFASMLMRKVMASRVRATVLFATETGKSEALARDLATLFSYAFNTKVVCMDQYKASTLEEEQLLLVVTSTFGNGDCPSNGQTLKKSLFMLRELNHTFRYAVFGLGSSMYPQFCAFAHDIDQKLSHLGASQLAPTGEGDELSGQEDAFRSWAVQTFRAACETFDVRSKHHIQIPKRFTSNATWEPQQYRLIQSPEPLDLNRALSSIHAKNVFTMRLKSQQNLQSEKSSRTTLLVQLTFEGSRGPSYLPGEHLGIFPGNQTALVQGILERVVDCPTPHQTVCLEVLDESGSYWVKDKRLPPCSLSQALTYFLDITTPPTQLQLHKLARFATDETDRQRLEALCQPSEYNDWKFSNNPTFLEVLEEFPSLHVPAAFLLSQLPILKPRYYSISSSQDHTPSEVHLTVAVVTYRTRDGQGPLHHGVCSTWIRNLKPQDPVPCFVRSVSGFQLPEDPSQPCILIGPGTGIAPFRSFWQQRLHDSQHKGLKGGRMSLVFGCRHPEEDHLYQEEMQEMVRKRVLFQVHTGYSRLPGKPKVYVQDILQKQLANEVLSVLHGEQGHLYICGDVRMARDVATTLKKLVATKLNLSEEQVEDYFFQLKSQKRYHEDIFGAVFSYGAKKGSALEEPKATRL

[5] = target: T3, Thromboxane-A synthase (Homo sapiens, UniProt P24557); test: biochemical; format: tissue-based, Platelet; settings: platelet;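 also: enzyme inhibition assay with PGH2 supplied as substrate; in other assays of this panel Not Active means under 50% inhibition at 10 µM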
T3 sequence (P24557 whole entry): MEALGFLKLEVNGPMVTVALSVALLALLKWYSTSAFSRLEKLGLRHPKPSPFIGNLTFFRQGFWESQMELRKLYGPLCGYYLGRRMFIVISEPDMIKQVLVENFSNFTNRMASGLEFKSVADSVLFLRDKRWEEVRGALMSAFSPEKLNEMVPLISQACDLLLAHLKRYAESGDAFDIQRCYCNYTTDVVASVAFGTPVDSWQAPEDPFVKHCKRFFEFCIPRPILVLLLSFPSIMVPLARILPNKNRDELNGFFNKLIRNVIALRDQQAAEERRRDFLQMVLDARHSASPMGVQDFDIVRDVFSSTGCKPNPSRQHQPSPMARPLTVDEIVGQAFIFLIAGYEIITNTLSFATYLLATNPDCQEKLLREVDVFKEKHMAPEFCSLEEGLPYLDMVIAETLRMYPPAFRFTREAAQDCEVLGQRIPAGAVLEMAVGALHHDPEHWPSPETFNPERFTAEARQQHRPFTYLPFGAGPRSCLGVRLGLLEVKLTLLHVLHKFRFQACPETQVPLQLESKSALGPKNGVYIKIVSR

[6] = target: Sodium-dependent dopamine transporter (Homo sapiens, UniProt Q01959); test: DRUGMATRIX: Dopamine Transporter radioligand binding (ligand: [125I] RTI-55); format: cell membranes, CHO-K1, Membrane; settings: cho-k1; Not Active = under 50% inhibition at 10 µM
Sodium-dependent dopamine transporter, sequence (Q01959 whole entry): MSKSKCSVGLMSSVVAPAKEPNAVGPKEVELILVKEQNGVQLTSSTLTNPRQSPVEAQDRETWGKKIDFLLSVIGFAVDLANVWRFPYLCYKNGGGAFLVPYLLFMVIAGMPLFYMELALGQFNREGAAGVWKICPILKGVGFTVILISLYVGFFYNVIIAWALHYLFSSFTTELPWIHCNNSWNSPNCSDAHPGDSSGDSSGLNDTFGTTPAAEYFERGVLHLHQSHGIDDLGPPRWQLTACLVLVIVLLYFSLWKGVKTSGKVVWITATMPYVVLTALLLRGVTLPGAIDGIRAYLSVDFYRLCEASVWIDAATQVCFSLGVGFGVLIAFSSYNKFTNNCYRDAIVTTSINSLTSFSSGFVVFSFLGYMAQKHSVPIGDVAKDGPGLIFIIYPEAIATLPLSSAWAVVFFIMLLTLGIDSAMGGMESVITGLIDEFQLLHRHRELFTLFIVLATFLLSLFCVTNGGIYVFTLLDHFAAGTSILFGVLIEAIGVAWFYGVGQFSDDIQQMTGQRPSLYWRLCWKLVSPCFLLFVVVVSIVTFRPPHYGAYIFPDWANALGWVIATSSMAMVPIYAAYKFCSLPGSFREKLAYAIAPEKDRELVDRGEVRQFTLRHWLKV

Epidermal growth factor receptor, sequence (P00533 whole entry): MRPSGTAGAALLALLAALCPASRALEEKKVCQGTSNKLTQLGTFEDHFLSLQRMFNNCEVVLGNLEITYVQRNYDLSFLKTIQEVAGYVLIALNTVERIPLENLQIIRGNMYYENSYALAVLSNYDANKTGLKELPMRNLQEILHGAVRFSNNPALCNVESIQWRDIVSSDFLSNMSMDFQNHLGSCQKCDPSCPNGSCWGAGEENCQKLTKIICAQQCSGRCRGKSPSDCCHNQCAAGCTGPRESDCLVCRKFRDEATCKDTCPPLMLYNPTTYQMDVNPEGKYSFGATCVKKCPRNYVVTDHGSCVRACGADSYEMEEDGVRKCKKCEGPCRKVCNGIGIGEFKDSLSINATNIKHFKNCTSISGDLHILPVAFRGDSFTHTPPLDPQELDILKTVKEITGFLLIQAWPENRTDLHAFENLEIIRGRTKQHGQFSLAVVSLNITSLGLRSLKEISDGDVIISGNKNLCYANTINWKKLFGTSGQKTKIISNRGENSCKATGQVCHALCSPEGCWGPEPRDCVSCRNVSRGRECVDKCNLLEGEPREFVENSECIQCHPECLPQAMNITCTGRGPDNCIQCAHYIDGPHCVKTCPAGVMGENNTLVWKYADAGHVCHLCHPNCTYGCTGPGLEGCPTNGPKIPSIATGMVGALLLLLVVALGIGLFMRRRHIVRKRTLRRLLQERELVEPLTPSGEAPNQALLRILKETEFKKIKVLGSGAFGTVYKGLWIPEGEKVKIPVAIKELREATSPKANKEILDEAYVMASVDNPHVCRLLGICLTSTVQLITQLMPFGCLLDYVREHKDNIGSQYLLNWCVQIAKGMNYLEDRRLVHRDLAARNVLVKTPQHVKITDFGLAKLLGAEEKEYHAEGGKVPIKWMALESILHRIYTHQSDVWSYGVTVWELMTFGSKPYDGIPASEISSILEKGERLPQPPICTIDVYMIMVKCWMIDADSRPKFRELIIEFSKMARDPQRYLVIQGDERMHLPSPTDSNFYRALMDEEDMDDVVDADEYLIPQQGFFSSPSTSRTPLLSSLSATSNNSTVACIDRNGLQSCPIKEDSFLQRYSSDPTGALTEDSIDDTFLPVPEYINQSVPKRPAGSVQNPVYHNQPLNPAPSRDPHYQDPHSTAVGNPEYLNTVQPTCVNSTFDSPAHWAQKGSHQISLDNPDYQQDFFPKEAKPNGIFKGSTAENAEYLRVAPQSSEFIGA
Melanocortin receptor 3, sequence (P41968 whole entry): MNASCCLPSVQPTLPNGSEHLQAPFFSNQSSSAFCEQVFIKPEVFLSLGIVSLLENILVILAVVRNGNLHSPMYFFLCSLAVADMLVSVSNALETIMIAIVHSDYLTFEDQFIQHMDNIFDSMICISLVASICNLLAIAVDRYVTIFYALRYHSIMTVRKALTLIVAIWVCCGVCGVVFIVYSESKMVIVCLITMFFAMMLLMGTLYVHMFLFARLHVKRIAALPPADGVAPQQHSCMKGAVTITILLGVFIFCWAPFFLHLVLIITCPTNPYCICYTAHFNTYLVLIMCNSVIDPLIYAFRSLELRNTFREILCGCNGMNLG

N#Cc1ccc(C(c2ccc(C#N)cc2)n2cncn2)cc1 [LETROZOLE]
IC50 [1]: Not Active
IC50 ([2]; hek293): Not Active
IC50 [3]: Not Active
IC50 [4]: Not Active
IC50 [5]: Not Active
IC50 [6]: Not Active

CCN1CCC[C@H]1CNC(=O)c1cc(S(N)(=O)=O)ccc1OC [LEVOSULPIRIDE]
IC50 [1]: Not Active
IC50 ([2]; hek293): Not Active
IC50 [3]: Not Active
IC50 [4]: Not Active
IC50 [5]: Not Active
IC50 [6]: Not Active

CCN(CC)CC(=O)Nc1c(C)cccc1C [LIDOCAINE]
IC50 [1]: Not Active
IC50 ([2]; hek293): Not Active
IC50 [3]: Not Active
IC50 [4]: Not Active
IC50 [5]: Not Active
IC50 [6]: Not Active

O=C1Nc2ccc(Cl)cc2C(c2ccccc2Cl)=NC1O (configuration not stated) [LORAZEPAM]
IC50 [1]: Not Active
IC50 ([2]; hek293): Not Active
IC50 [3]: Not Active
IC50 [4]: Not Active
IC50 [5]: Not Active
IC50 [6]: Not Active

CO[C@@H]1[C@@H](OC)[C@H](C)[C@@](O)(CC(=O)O)O[C@H]1[C@H](C)[C@H]1O[C@@]2(CC[C@@](C)([C@H]3CC[C@@](C)([C@@H]4O[C@@H]([C@H]5O[C@](C)(O)[C@H](C)C[C@@H]5C)C[C@@H]4O[C@@H]4C[C@H](OC)[C@@H](OC)[C@H](C)O4)O3)O2)C[C@H](O)[C@H]1C [MADURAMICIN ACID]
IC50 [1]: Not Active
IC50 ([2]; read-out: IC50): 1130 nM
Ki ([2]; read-out: Ki): 554 nM
IC50 [3]: Not Active
IC50 [4]: Not Active
IC50 [5]: Not Active
IC50 [6]: Not Active

COc1c2occc2cc2ccc(=O)oc12 [METHOXSALEN]
IC50 [1]: Not Active
IC50 ([2]; hek293): Not Active
IC50 [3]: Not Active
IC50 [4]: Not Active
IC50 [5]: Not Active
IC50 [6]: Not Active

C[C@H]1C[C@@H]2[C@H]([C@@H](O)C[C@@]3(C)[C@H]2CC[C@]3(O)C(=O)CO)[C@@]2(C)C=CC(=O)C=C12 [METHYLPREDNISOLONE]
IC50 [1]: Not Active
IC50 ([2]; hek293): Not Active
IC50 [3]: Not Active
IC50 [4]: Not Active
IC50 [5]: Not Active
IC50 [6]: Not Active

Cc1cccc(C)c1OCC(C)N (configuration not stated) [MEXILETINE]
IC50 [1]: Not Active
IC50 ([2]; hek293): Not Active
IC50 [3]: Not Active
IC50 [4]: Not Active
IC50 [5]: Not Active
IC50 [6]: Not Active

Nc1cc(N2CCCCC2)nc(N)[n+]1[O-] [MINOXIDIL]
IC50 [1]: Not Active
IC50 ([2]; hek293): Not Active
IC50 [3]: Not Active
IC50 [4]: Not Active
IC50 [5]: Not Active
IC50 [6]: Not Active

CO[C@H]1/C=C/O[C@@]2(C)Oc3c(C)c(O)c4c(O)c(c(/C=N/N5CCN(C6CCCC6)CC5)c(O)c4c3C2=O)NC(=O)/C(C)=C\C=C\[C@H](C)[C@H](O)[C@@H](C)[C@@H](O)[C@@H](C)[C@H](OC(C)=O)[C@@H]1C [RIFAPENTINE]
IC50 [1]: Not Active
IC50 ([2]; hek293): Not Active
IC50 [3]: Not Active
IC50 [4]: Not Active
IC50 [5]: Not Active
IC50 [6]: Not Active

CCCCOc1cc(CC2CNC(=O)N2)ccc1OC (configuration not stated) [RO-201724]
IC50 [1]: Not Active
IC50 ([2]; hek293): Not Active
IC50 [3]: Not Active
IC50 [4]: Not Active
IC50 [5]: Not Active
IC50 [6]: Not Active

CN[C@H]1CC[C@@H](c2ccc(Cl)c(Cl)c2)c2ccccc21 [SERTRALINE]
IC50 [1]: Not Active
IC50 ([2]; hek293): Not Active
IC50 [3]: Not Active
IC50 [4]: Not Active
IC50 [5]: Not Active
